# Reference: ChEMBL document CHEMBL1201862, “PubChem BioAssay data set” (2004)
# The source made the active and inactive calls. Unless noted, no cut-off for these calls is given here.
# Key:
# [1] = molecular target: T1, NADPH oxidase 1 (Homo sapiens, UniProt Q9Y5S8); assay: NOX1 inhibitors, concentration-response, dose response, cell-based, luminescence, cherry picks 2 (AID 434997); type: functional
# T1 sequence (Q9Y5S8 whole entry): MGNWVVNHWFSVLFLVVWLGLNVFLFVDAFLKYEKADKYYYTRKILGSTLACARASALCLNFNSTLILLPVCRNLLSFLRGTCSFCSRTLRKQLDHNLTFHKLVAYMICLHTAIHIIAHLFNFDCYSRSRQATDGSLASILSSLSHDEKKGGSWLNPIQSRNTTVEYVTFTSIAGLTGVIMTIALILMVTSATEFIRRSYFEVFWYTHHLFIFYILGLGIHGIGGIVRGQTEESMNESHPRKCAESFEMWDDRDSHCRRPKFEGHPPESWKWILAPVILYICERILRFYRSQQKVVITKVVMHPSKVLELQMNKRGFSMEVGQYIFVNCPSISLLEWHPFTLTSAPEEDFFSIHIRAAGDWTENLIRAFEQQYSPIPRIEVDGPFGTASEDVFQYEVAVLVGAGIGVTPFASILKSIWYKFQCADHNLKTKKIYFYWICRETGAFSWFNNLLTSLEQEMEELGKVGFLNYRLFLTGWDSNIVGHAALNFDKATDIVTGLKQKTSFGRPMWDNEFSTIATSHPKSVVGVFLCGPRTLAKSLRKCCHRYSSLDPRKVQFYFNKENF
# [2] = molecular target: T1, NADPH oxidase 1; assay: ROS production inhibition in HEK293 cells, late-stage follow-up, counter-screen for NOX1 inhibitor project, cell-based, IC50, set 2 (AID 435002); type: functional
# [3] = molecular target: NADPH oxidase 4 (Homo sapiens, UniProt Q9NPH5); assay: PubChem AID 435013
# [4] = molecular target: NADPH oxidase 3 (Homo sapiens, UniProt Q9HBY0); assay: PubChem AID 435013
# [5] = molecular target: NADPH oxidase 2 (Homo sapiens, UniProt P04839); assay: PubChem AID 435013
# [6] = A cytotoxicity screen of small molecule inhibitors of the PhoP region in Salmonella typhi identified in the primary screen. [Related pubchem assays: 1850, 1864, 1985 ]; type: functional
# [7] = molecular target: T2, Hexokinase HKDC1 (Homo sapiens, UniProt Q2TB90); assay: HKDC1 hexokinase activators, dose response, biochemical, W721R variant (AID 504730); type: functional
# T2 sequence (Q2TB90 whole entry): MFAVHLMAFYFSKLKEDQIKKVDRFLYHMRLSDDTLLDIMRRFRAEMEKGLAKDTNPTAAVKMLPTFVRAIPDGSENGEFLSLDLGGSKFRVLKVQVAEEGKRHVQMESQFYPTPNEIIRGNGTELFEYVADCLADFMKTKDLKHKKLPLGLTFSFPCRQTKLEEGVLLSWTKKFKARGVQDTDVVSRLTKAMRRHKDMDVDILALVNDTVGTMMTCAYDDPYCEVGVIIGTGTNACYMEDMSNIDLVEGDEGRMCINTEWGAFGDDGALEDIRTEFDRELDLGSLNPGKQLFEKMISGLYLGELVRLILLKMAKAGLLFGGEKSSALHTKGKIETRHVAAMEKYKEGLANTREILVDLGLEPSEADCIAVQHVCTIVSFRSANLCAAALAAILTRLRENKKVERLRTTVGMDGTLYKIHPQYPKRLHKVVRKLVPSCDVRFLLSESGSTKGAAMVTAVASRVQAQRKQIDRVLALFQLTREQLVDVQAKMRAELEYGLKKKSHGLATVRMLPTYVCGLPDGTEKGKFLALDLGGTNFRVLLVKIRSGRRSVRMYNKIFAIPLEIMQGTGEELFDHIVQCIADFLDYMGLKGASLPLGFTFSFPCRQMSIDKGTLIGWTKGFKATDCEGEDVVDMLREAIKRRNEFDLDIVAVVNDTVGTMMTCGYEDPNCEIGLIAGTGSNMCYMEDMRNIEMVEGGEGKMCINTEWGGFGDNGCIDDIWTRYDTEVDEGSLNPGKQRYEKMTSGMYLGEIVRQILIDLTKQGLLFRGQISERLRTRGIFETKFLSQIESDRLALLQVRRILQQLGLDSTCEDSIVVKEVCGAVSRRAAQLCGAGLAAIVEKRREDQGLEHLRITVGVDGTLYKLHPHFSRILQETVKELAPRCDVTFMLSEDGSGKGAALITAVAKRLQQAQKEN
# [8] = molecular target: Hexokinase-1 (Homo sapiens, UniProt P19367); assay: hexokinase 1 activators, dose response, selectivity assay for HKDC1 activator project, biochemical (AID 504762); type: functional
# [9] = molecular target: Protein-arginine deiminase type-4 (Homo sapiens, UniProt Q9UM07); assay: human PAD4 inhibitor potency, dose response, biochemical, fluorescence readout (AID 492970)
# Protein-arginine deiminase type-4, sequence (Q9UM07 whole entry): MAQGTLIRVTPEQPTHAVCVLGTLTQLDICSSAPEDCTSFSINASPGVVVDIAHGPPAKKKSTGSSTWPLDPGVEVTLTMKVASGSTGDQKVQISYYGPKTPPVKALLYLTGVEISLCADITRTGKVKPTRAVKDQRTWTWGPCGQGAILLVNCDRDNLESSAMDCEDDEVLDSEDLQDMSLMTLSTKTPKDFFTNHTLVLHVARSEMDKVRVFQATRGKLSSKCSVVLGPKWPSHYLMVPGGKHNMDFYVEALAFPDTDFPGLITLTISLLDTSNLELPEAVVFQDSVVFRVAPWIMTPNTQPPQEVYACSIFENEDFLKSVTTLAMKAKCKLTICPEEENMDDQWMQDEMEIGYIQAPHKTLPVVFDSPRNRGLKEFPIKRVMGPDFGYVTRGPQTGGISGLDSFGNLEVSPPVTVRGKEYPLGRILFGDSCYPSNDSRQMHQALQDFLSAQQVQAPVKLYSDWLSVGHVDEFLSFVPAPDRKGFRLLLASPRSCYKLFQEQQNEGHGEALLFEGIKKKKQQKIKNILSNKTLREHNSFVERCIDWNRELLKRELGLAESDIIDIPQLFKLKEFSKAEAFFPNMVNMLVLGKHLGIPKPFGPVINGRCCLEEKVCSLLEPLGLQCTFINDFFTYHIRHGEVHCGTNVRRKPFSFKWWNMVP
# Hexokinase-1, sequence (P19367 whole entry): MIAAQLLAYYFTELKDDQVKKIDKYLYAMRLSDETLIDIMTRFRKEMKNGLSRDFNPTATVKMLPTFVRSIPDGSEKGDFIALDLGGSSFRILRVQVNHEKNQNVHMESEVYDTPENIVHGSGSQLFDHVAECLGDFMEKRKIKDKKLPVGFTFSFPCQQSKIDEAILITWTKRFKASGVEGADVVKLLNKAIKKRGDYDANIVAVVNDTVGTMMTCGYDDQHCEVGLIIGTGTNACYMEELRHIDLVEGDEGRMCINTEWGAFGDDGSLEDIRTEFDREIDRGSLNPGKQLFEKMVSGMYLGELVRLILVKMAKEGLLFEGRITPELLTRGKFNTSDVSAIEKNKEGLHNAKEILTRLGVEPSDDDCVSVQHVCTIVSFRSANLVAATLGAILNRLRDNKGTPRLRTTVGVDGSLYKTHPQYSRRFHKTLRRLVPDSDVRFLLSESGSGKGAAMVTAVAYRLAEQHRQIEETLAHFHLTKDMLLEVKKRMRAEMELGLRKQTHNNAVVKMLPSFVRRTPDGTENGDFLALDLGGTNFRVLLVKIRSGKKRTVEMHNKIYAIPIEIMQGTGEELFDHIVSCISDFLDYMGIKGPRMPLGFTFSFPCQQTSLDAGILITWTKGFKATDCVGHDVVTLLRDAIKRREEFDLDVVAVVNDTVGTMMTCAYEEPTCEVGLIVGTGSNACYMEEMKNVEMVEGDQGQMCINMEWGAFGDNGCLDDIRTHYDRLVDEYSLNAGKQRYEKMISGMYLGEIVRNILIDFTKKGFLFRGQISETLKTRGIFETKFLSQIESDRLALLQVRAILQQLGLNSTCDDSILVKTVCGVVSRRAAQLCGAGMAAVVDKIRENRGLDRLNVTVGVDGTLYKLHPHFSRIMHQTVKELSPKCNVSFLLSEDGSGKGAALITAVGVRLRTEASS
# NADPH oxidase 4, sequence (Q9NPH5 whole entry): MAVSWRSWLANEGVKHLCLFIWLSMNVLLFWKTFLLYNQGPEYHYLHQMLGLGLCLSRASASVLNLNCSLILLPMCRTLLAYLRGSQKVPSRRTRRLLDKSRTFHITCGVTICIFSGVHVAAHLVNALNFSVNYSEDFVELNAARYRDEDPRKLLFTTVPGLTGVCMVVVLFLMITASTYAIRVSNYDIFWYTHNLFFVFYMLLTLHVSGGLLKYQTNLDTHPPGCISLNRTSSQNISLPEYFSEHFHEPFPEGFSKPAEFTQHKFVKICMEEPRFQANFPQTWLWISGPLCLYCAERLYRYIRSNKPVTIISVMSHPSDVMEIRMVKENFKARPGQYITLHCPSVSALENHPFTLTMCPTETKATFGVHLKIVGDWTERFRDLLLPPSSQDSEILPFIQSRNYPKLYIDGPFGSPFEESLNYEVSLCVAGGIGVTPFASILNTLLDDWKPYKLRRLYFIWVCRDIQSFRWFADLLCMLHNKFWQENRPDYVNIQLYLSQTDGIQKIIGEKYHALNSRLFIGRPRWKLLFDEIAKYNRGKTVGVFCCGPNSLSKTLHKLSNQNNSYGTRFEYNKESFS
# NADPH oxidase 2, sequence (P04839 whole entry): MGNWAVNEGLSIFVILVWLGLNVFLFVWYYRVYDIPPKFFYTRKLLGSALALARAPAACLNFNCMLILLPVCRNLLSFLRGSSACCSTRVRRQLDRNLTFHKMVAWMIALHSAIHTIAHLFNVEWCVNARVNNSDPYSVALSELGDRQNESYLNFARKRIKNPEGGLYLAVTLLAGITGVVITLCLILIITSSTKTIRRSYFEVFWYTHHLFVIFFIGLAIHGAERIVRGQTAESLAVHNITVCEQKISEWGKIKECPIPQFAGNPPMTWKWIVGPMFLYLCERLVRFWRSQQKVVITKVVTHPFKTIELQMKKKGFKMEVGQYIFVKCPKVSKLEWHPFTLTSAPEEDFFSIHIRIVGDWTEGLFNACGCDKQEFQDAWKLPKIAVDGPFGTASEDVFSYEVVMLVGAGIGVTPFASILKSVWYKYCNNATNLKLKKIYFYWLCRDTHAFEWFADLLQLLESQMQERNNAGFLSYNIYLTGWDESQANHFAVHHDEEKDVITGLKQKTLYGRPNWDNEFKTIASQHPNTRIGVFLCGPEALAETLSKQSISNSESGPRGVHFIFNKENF
# NADPH oxidase 3, sequence (Q9HBY0 whole entry): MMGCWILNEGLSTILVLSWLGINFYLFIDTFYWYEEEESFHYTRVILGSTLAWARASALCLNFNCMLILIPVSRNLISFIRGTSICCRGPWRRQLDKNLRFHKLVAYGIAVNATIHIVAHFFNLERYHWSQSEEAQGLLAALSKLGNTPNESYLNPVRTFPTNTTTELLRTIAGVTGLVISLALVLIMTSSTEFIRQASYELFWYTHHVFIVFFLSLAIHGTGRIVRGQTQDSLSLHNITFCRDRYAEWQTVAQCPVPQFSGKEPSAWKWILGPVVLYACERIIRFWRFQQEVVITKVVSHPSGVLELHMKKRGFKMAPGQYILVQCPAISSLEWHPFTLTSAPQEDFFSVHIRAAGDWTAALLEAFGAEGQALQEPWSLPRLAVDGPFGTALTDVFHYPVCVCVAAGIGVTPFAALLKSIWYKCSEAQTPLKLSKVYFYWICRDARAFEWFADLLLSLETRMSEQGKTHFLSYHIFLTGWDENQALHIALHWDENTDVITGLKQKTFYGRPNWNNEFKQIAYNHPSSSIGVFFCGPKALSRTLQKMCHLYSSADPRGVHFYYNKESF
structure (smiles),measurement,setting,value
CN(C)c1ccc(/C=N/Nc2c(Cl)cncc2Cl)cc1,IC50,[1],440 nM (active)
same,IC50,[2],4 µM (active)
same,IC50,[3],9 µM (active)
same,IC50,[4],20 µM (inactive)
same,IC50,[5],> 10 µM (inactive)
Nc1nc(N2CCN(c3ccccn3)CC2)nc2ccccc12,EC50,[6],> 50 µM (active)
same,EC50,[7],25.4 µM (inactive)
same,EC50,[8],32.2 µM (inactive)
CC(=O)c1cc([N+](=O)[O-])c(Sc2ccc(Cl)cc2)s1,IC50,[9],92 µM (inactive)
